Measurements as given in ChEMBL document CHEMBL5608197, “Optimization of pyrazolopyridine 4-carboxamides with potent antimalarial activity for which resistance is associated with the P. falciparum transporter ABCI3” (Eur J Med Chem, 2024).
pEC50: −log10 of the molar value. In brackets after ≈: the same amount, converted by molar mass.

Assays:
Plasmodium falciparum [1] = assay: Antiplasmodial activity against Plasmodium falciparum Dd2 infected in erythrocytes assessed as inhibition of parasite growth incubated for 72 hrs by [3H]hypoxanthine incorporation based microbeta counting analysis; type: functional, organism-based; settings: Dd2, Erythrocyte
Plasmodium falciparum [2] = assay: Antiplasmodial activity against multidrug-resistant Plasmodium falciparum Dd2 harboring DHODH-C276F mutant infected in erythrocytes assessed as inhibition of parasite growth incubated for 72 hrs by [3H]hypoxanthine incorporation based microbeta counting analysis; type: functional, organism-based; settings: Dd2, Erythrocyte
Plasmodium falciparum [3] = assay: Antiplasmodial activity against asexual blood stage of Plasmodium falciparum 3D7 assessed as inhibition of parasite growth incubated for 72 hrs by LDH assay; type: functional, organism-based; settings: 3D7, 72 h
[4] = Cytotoxicity against human HepG2 cells assessed as inhibition of cell growth incubated for 48 hrs by CellTiter-Glo luminescence assay; type: toxicity, cell-based
Plasmodium falciparum [5] = assay: Antiplasmodial activity against ring stage of Plasmodium falciparum 3D7 expressing ABCI3-HAreg assessed as inhibition of parasite proliferation incubated for 72 hrs in presence of ABCI3 inhibitor, GlcN by SYBR dye based flow cytometry; type: functional, organism-based; settings: 3D7, 72 h
[6] = Intrinsic clearance in rat hepatocytes at 1 uM measured per million cells for 90 mins by LC-MS/MS analysis; type: ADME, cell-based, Hepatocyte; settings: read-out: CLH
[7] = Aqueous solubility of the compound in PBS buffer at pH 7.4 at 200 uM incubated for 2 hrs under shaking condition by miniaturized shake flask method; type: physicochemical
[8] = Lipophilicity, elogD of the compound in 1-Octanol/PBS at pH 7.4 at 7.5 uM incubated for 2 hrs by miniaturized shake flask method; type: physicochemical
[9] = Intrinsic clearance in human liver microsomes at 1 uM measured for 60 mins by LC-MS/MS analysis; type: ADME, Microsome; settings: read-out: CLH
Plasmodium falciparum [10] = assay: Antiplasmodial activity against multidrug-resistant Plasmodium falciparum Dd2 harboring CARL-I1139K mutant infected in erythrocytes assessed as inhibition of parasite growth incubated for 72 hrs by [3H]hypoxanthine incorporation based microbeta counting analysis; type: functional, organism-based; settings: Dd2, Erythrocyte
Plasmodium falciparum [11] = assay: Antiplasmodial activity against multidrug-resistant Plasmodium falciparum Dd2 harboring PI4K-S743F mutant infected in erythrocytes assessed as inhibition of parasite growth incubated for 72 hrs by [3H]hypoxanthine incorporation based microbeta counting analysis; type: functional, organism-based; settings: Dd2, Erythrocyte
Plasmodium falciparum [12] = assay: Antiplasmodial activity against multidrug-resistant Plasmodium falciparum Dd2 harboring cyt b-I22L mutant infected in erythrocytes assessed as inhibition of parasite growth incubated for 72 hrs by [3H]hypoxanthine incorporation based microbeta counting analysis; type: functional, organism-based; settings: Dd2, Erythrocyte
Plasmodium falciparum [13] = assay: Antiplasmodial activity against multidrig-resistant Plasmodium falciparum Dd2 harboring eEF2Y-I86N mutant infected in erythrocytes assessed as inhibition of parasite growth incubated for 72 hrs by [3H]hypoxanthine incorporation based microbeta counting analysis; type: functional, organism-based; settings: Dd2, Erythrocyte

Compound | pEC50 (Plasmodium falciparum [3]) | CC50 at 48 h [4] [nM] | also measured
Cc1cc(Nc2ccc(S(F)(F)(F)(F)F)cc2)n2nc(C(C)(F)F)nc2n1 [DSM-265] | – | – | pEC50 (Plasmodium falciparum [1]): 8.22; pEC50 (Plasmodium falciparum [2]): 7.00
Cc1cc(C(=O)N2CCOc3ccccc32)c2c(C)nn(C(C)(C)C)c2n1 | 5.25 | > 40000 | –
Cc1nn(C(C)(C)C)c2nc(C3CC3)cc(C(=O)N3CCOc4ncccc43)c12 | 5.60 | > 10000 | –
CC(C)(C)n1ncc2c(C(=O)N3CCOc4ccccc43)cc(C3CC3)nc21 | 6.31 | > 40000 | –
Cc1nn(C(C)(C)C)c2nc(C3CC3)cc(C(=O)Nc3ccccc3)c12 | 5.41 | > 10000 | –
CCN(CC)CCCC(C)Nc1ccnc2cc(Cl)ccc12 (stereo not drawn) [CHLOROQUINE] | – | – | pEC50 (Plasmodium falciparum [5]): 7.95
COc1cc(C(=O)N2CCOc3ccccc32)c2c(C)nn(C(C)(C)C)c2n1 | 5.98 | > 40000 | –
Cc1cc(C)c(NC(=O)c2cc(C3CC3)nc3c2c(C)nn3C(C)(C)C)c(Cl)c1 | 5.95 | > 40000 | –
Cc1nn(C(C)(C)C)c2nc(C3CC3)cc(C(=O)N3CCOc4cc(F)ccc43)c12 | 5.98 | > 10000 | hepatocyte CLint at 1 µM [6]: 23 µL/min/1e6 cells; solubility thermodynamic at 2 h, 200 µM [7]: < 2.5 µM; logD at 2 h, 7.5 µM [8]: 5.9; microsomal CLint at 1 µM [9]: 160 µL/min/mg
CC(C)(C)n1nc(-c2ccccc2)c2c(C(=O)N3CCOc4ccccc43)cc(C3CC3)nc21 | 5.66 | > 40000 | –
Cc1nn(C(C)(C)C)c2nc(C3CC3)cc(C(=O)N3CCOc4ccc(F)cc43)c12 | 6.89 | 9670 | hepatocyte CLint at 1 µM [6]: 22 µL/min/1e6 cells; solubility thermodynamic at 2 h, 200 µM [7]: 2.8 µM (≈ 1.14 µg/mL); logD at 2 h, 7.5 µM [8]: 5.8; microsomal CLint at 1 µM [9]: 100 µL/min/mg
Cc1nn(C(C)(C)C)c2nc(C3CC3)cc(C(=O)N3CCN(C)CC3)c12 | 6.26 | > 40000 | –
COc1ccccc1CNC(=O)c1cc(C2CC2)nc2c1c(C)nn2C(C)(C)C | 6.33 | > 40000 | –
COc1ccccc1CNC(=O)c1cc(C2CC2)nc2c1cnn2C(C)C | 6.17 | > 40000 | –
Cc1nn(-c2ccccc2)c2nc(C3CC3)cc(C(=O)N3CCOc4ccccc43)c12 | 5.95 | > 40000 | –
Cc1nn(C)c2nc(C3CC3)cc(C(=O)N3CCOc4ccccc43)c12 | < 5.00 | – | –
Cc1nn(C(C)(C)C)c2nc(C3CC3)cc(C(=O)N3CCNc4ccccc43)c12 | 6.74 | > 40000 | hepatocyte CLint at 1 µM [6]: 123 µL/min/1e6 cells; solubility thermodynamic at 2 h, 200 µM [7]: 3.5 µM (≈ 1.36 µg/mL); logD at 2 h, 7.5 µM [8]: 4.8; microsomal CLint at 1 µM [9]: 471 µL/min/mg
COc1ccccc1N(C)C(=O)c1cc(C2CC2)nc2c1c(C)nn2C(C)(C)C | 5.63 | > 10000 | –
Cc1n[nH]c2nc(C3CC3)cc(C(=O)N3CCOc4ccccc43)c12 | < 5.00 | – | –
COc1nn(C(C)(C)C)c2nc(C3CC3)cc(C(=O)N3CCOc4ccccc43)c12 | 6.91 | > 40000 | hepatocyte CLint at 1 µM [6]: 19 µL/min/1e6 cells; solubility thermodynamic at 2 h, 200 µM [7]: < 2.5 µM; logD at 2 h, 7.5 µM [8]: > 6.4; microsomal CLint at 1 µM [9]: 300 µL/min/mg
CCc1cc(C(=O)N2CCOc3ccccc32)c2c(C)nn(C(C)(C)C)c2n1 | 6.07 | > 40000 | –
Cc1nn(C(C)(C)C)c2nc(C3CC3)cc(C(=O)N3CCOc4cnccc43)c12 | 5.68 | – | –
Cc1nn(C(C)(C)C)c2nc(C3CC3)cc(C(=O)N3CCN(C)c4ccccc43)c12 | 6.59 | > 40000 | hepatocyte CLint at 1 µM [6]: 65 µL/min/1e6 cells; solubility thermodynamic at 2 h, 200 µM [7]: 3 µM (≈ 1.21 µg/mL); logD at 2 h, 7.5 µM [8]: 5.4; microsomal CLint at 1 µM [9]: 387 µL/min/mg
Cc1nn(C(C)(C)C)c2nc(C3CC3)cc(C(=O)N3CCCc4ccccc43)c12 | 6.79 | > 40000 | hepatocyte CLint at 1 µM [6]: 45 µL/min/1e6 cells; solubility thermodynamic at 2 h, 200 µM [7]: 2.8 µM (≈ 1.09 µg/mL); logD at 2 h, 7.5 µM [8]: 5.9; microsomal CLint at 1 µM [9]: 277 µL/min/mg

Compound | pEC50 (Plasmodium falciparum [3]) | CC50 at 48 h [4] [nM] | also measured
CC1(C)c2nc(-c3ccc(F)cc3)c(Nc3ccc(F)cc3)n2CCN1C(=O)CN [GANAPLACIDE] | – | – | pEC50 (Plasmodium falciparum [1]): 7.77; pEC50 (Plasmodium falciparum [10]): 5.72
Cc1nn(C(C)(C)C)c2nc(C3CC3)cc(C(=O)N3CCc4ccccc43)c12 | 5.61 | > 40000 | –
COc1ccccc1NC(=O)c1cc(C2CC2)nc2c1c(C)nn2C(C)(C)C | 5.64 | > 40000 | –
CS(=O)(=O)c1ccc(-c2cnc(N)c(-c3ccc(C(F)(F)F)nc3)c2)cc1 [MMV-048] | – | – | pEC50 (Plasmodium falciparum [1]): 7.92; pEC50 (Plasmodium falciparum [11]): 7.05
COc1nn(C(C)C)c2nc(C3CC3)cc(C(=O)N3CCOc4ccncc43)c12 | 7.82 | 28700 | hepatocyte CLint at 1 µM [6]: > 92 µL/min/1e6 cells; solubility thermodynamic at 2 h, 200 µM [7]: 161 µM (≈ 63.3 µg/mL); logD at 2 h, 7.5 µM [8]: 3.7; microsomal CLint at 1 µM [9]: > 462 µL/min/mg
Cc1nn(C(C)(C)C)c2nc(-c3ccccc3)cc(C(=O)N3CCOc4ccccc43)c12 | 6.34 | > 40000 | –
CCc1nn(C(C)(C)C)c2nc(C3CC3)cc(C(=O)N3CCOc4ccccc43)c12 | 6.54 | > 10000 | –
COc1cc2[nH]c(C)c(-c3ccc(Oc4ccc(OC(F)(F)F)cc4)cc3)c(=O)c2cc1Cl | – | – | pEC50 (Plasmodium falciparum [1]): 7.85; pEC50 (Plasmodium falciparum [12]): 6.92
Cc1nn(C(C)C)c2nc(C3CC3)cc(C(=O)N3CCOc4ccccc43)c12 | 6.51 | > 40000 | hepatocyte CLint at 1 µM [6]: > 92 µL/min/1e6 cells; solubility thermodynamic at 2 h, 200 µM [7]: 10 µM (≈ 3.76 µg/mL); logD at 2 h, 7.5 µM [8]: 4.5; microsomal CLint at 1 µM [9]: 424 µL/min/mg
Cc1nn(C(C)(C)C)c2nc(C3CC3)cc(C(=O)N3CCOCC3)c12 | 5.63 | > 40000 | –
CC(C)(C)n1nc(Cl)c2c(C(=O)N3CCOc4ccccc43)cc(C3CC3)nc21 | 6.59 | > 40000 | hepatocyte CLint at 1 µM [6]: 34 µL/min/1e6 cells; solubility thermodynamic at 2 h, 200 µM [7]: < 2.5 µM; logD at 2 h, 7.5 µM [8]: > 5.9; microsomal CLint at 1 µM [9]: 155 µL/min/mg
Cc1nn(C(C)(C)C)c2nc(C3CC3)cc(C(=O)Nc3nnc4ccccn34)c12 | < 5.00 | – | –
Cc1nn(C(C)(C)C)c2nc(C3CC3)cc(C(=O)N3CCOc4cccnc43)c12 | 6.07 | > 10000 | –
Cc1nn(C(C)(C)C)c2nc(C3CC3)cc(C(=O)N3CCCCC3)c12 | 6.20 | > 40000 | –
CC(C)(C)n1nc(C2CC2)c2c(C(=O)N3CCOc4ccccc43)cc(C3CC3)nc21 | 7.10 | > 10000 | –
O=C(NCCN1CCCC1)c1cc(-c2ccc(CN3CCOCC3)cc2)nc2ccc(F)cc12 [CABAMIQUINE] | – | – | pEC50 (Plasmodium falciparum [1]): 9.00; pEC50 (Plasmodium falciparum [13]): 6.07
Cc1nn(C(C)(C)C)c2nc(C(C)C)cc(C(=O)N3CCOc4ccccc43)c12 | 6.13 | > 40000 | –
Cc1nn(C(C)C)c2nc(C(C)C)cc(C(=O)Nc3nnc4ccccn34)c12 | 6.07 | – | –
CC1CN(C(=O)c2cc(-c3ccccc3)nc3c2cnn3C(C)C)CCO1 (stereo not drawn) | 6.00 | > 40000 | –
CC(C)c1nn(C(C)(C)C)c2nc(C3CC3)cc(C(=O)N3CCOc4ccccc43)c12 | 6.24 | > 40000 | –
CC(C)(C)n1nc(Br)c2c(C(=O)N3CCOc4ccccc43)cc(C3CC3)nc21 | 6.81 | > 40000 | –
COc1nn(C(C)(C)C)c2nc(C3CC3)cc(C(=O)N3CCOc4ccncc43)c12 | 8.30 | 7260 | hepatocyte CLint at 1 µM [6]: 87 µL/min/1e6 cells; solubility thermodynamic at 2 h, 200 µM [7]: 19 µM (≈ 7.74 µg/mL); logD at 2 h, 7.5 µM [8]: 5.1; microsomal CLint at 1 µM [9]: 423 µL/min/mg
Cc1cc(C)c(NC(=O)c2cc(C)nc3c2c(C)nn3C)c(Cl)c1 | 6.77 | > 40000 | –
